Source: patent US6723897B2, “Methods for controlling gibberellin levels” (Monsanto Technology, LLC, priority 1998, dated 2004)

Legend:
[1] = Distribution of 14C label in soybean plant parts after seed treatment
Procedure: (§1) ^14C-radiolabelled compounds are obtained from Lew Mander (Australian National University). ^14C-GA3 is dissolved in water:ethanol, 80:20, v/v; ^14C-GA9 and ^14C-GA12 are dissolved in 100% ethanol. Seeds of Asgrow 3237 soybeans are treated separately with solutions of each of the ^14C-radiolabelled compounds (1.7-6.8 μg; 10-40 ppm; 111,000-2,000,000 dpm/seed) by placing one to four μl of the dosing solution directly on the seed coat (^14C-GA3, GA9, and GA12), or on the hilum portion of the seed (^14C-GA3). After evaporation of the carrier solvent (approx. one hour), the treated seed is planted in containers containing approximately 30 gm of Metromix-350, and transferred to a growth chamber. Plants are grown under a 12 hour light/12 hour dark regime at 92° F. (33° C.)and 75% humidity. The pattern of uptake and translocation of ^14C-radioactivity in treated seed is monitored up to 12 days past initial treatment. For most experiments, three replicate plants are harvested at one hour after treatment, one day after treatment (DAT), two DAT, three DAT, six or seven DAT, and 12 DAT. At the time of each harvest, plants are divided into leaves, epicotyl, cotyledon, hypocotyl, and roots. The level of ^14C-radioactivity in different plant parts is determined by extraction of plant tissues with aqueous methanol and scintillation counting. The extent of metabolism of the ^14C-labelled GA compounds in planta is determined by HPLC analysis of plant extracts. The details are as follows.
(§2) The general extraction procedure consisted of blending the plant parts in a high speed polytron tissue homogenizer for 1-5 minutes with 10-20 ml of ice-cold methanol:water, 80:20, v/v, followed by vacuum filtration through a Whatman glass fiber filter. The filter cake is re-extracted as necessary using the procedure described above until an insignificant amount of radioactivity is removed. Prior to combining the extracts from each sample, aliquots are weighed and analyzed by liquid scintillation counting (LSC) to determine the amount of extracted radioactivity in each extract. Aliquots of the air-dried filter cakes are combusted and analyzed by LSC in order to determine the amount of non-extracted radioactivity. The extracts are combined and, when necessary, concentrated by rotary evaporation at a bath temperature of less than 35° C. to a small volume for analysis by HPLC to determine the extent of metabolism of the ^14C-labelled GA compounds in planta.

[2] = test system: wild-type soybeans (line A3237); test: Summary of first two greenhouse experiments, elongation of wild-type soybeans
Procedure: Compounds are first prepared as 25 mg/ml solutions in ethanol as described above, and then diluted into 40 ml of water to prepare the final 0.25 mg/ml treatment solutions. Visual observations on solubilities (milky, clear, etc.) of the treatment solutions are noted. The treatment solutions are divided into two 20 ml portions, each in 50 ml plastic centrifuge tubes. In addition to treating seeds with solutions containing the test compounds, untreated seeds and seeds imbibed in ethanol-water solution (300 μl ethanol in 30 mls of water) are also included in this experiment as controls. In the latter case, 20 seeds are imbibed in 30 mls of solution for six hours.
Two soybean varieties are selected for testing: constitutively GA-deficient transgenic dwarf soybean line 719 (plasmid pMON29801, constitutive FMV promoter/asCPScc; which is a mixture of 719−2 and 719+17), and A3237, the wild-type parent material. […] After imbibition, seeds are removed from the test tubes, placed on wax paper to dry, and planted in bread pans containing farm soil amended with fertilizer at 20 seeds/pan. Seeds are covered with 0.5″ of vermiculite. Pans are transferred to the greenhouse, which had day/night temperatures of 86/68° F. (30/20° C.), and subirrigated. Illumination is at a light intensity of 300-400 μmolm^−2s^−1 photosynthetic photon flux; 16 hours light/8 hours dark. Subsequent waterings are also through sub-irrigation until the test is terminated three weeks later. Observations included the number of dwarf, intermediate, and tall plants; plant height; uniformity of rescue; and any visual effects.
All compounds are tested at final concentrations of 0.25, 0.025, and 0.0025 mg/ml except for GA9, which is tested at 0.125, 0.0125, and 0.00125 mg/ml. (The compounds are tested in Experiment I at only one concentration, i.e., 0.25 mg/ml). Test tubes contained […] of ethanol solution per tube. Final volumes are made up to 30 ml with deionized water. After shaking, the treatment solutions (15 ml each) are transferred to each of two 50 ml test tubes. Treatments 1 to 27 are performed on wild-type line A3237; treatments 28 to 54 are performed on constitutively GA-deficient transgenic dwarf soybean line 719 (a mixture of 719−2 and 719+17). Twenty seeds are used in each treatment. Dry seed, ethanol/water-imbibed seed (1% ethanol in water, v/v), and water-imbibed seeds are included as controls. Seeds are imbibed for 6 hours in the test solutions, then planted in bread pans containing Metromix 350 (The Scotts Company, Marysville, Ohio), and covered with 0.5″ Metro-mix. Covered pans are transferred to the greenhouse and subirrigated. Illumination is at a light intensity of 300-400 μmolm^−2s^−1 photosynthetic photon flux; 16 hours light/8 hours dark. Subsequent waterings are also through sub-irrigation until the test is terminated three weeks later. Observations included the number of dwarf, intermediate, and tall plants; plant height; uniformity of rescue; and any visual effects. Digital photographs are also taken.

[3] = Half-lives of 14C-labelled GA compounds in planta; settings: for Half-life (days) in planta: ^14C-labelled compound on seed of Asgrow 3237 soybeans
Procedure: as §1, with “At the time of each harvest, plants are divided into leaves, epicotyl, cotyledon, hypocotyl, and roots.” left out, “The details are as follows.” left out
as §2, with “The extracts are combined and, when necessary, concentrated by rotary evaporation at a bath temperature of less than 35° C. to a small volume for analysis by HPLC to determine the extent of metabolism of the ^14C-labelled GA compounds in planta.” left out

[4] = Particulate material present in solutions after mixing; format: physicochemical; settings: for solubility in water during imbibition: 0.25 mg/ml treatment solutions; for Particulate material present, 100X Diln w/water: 0.25 mg/ml compound in water
Procedure: Each of the compounds noted above is weighed to the nearest 0.1 mg in a pre-tarred 1.5-ml polypropylene vial with a screw-top lid. Absolute ethanol is added to the weighed powder to prepare a 25 mg/ml solution. Solutions are thoroughly mixed using a vortex mixer. A stainless steel spatula is used to crush any particulate material remaining after extensive mixing. Vials are left overnight at room temperature, and then remixed to form the concentrated ethanol stock solutions. The presence of undissolved material is noted throughout this procedure.

[5] = 0.0025 mg/ml solution (ethanol-water)
[6] = 0.025 mg/ml solution (ethanol-water)
[7] = 0.25 mg/ml solution (ethanol-water)

| Structure (SMILES) | ^14C Label Distribution (% of dose), Cotyledon ([1]; 3 DAP) | ^14C Label Distribution (% of dose), Hypocotyl ([1]; 3 DAP) | ^14C Label Distribution (% of dose), Root ([1]; 3 DAP) | ^14C Label Distribution (% of dose), Cotyledon ([1]; 12 DAP) | ^14C Label Distribution (% of dose), Epicotyl ([1]; 12 DAP) | ^14C Label Distribution (% of dose), Hypocotyl ([1]; 12 DAP) | ^14C Label Distribution (% of dose), Leaves ([1]; 12 DAP) | ^14C Label Distribution (% of dose), Root ([1]; 12 DAP) | Elongation of wild-type soybeans [2, 5] | Elongation of wild-type soybeans [2, 6] | Elongation of wild-type soybeans [2, 7] | half-life ([3]; Asgrow 3237, soybean (Glycine max), in vivo) [h] | solubility in water during imbibition [4] | Particulate material present, Initial Mixing ([4]; 25 mg/ml in absolute ethanol) | Particulate material present, O/N Incubation ([4]; 25 mg/ml in ethanol, overnight at room temperature, remixed) | Half-life (days) in planta [3] [days] | Particulate material present, 100X Diln w/water [4] | Elongation of wild-type soybeans ([2]; 0.00125 mg/ml solution (ethanol-water)) | Elongation of wild-type soybeans ([2]; 0.0125 mg/ml solution (ethanol-water)) | Elongation of wild-type soybeans ([2]; 0.125 mg/ml solution (ethanol-water)) |
| --- | --- | --- | --- | --- | --- | --- | --- | --- | --- | --- | --- | --- | --- | --- | --- | --- | --- | --- | --- | --- |
| C=C1C[C@]23C[C@@]1(O)CC[C@H]2[C@@]12C=C[C@H](O)[C@@](C)(C(=O)O1)[C@H]2[C@@H]3C(=O)O [GA3, gibberellic acid] | 85 % of dose | 1.5 % of dose | 0.5 % of dose | 72 % of dose | 0.2 % of dose | 1.4 % of dose | 0.9 % of dose | 2.8 % of dose | + | + | + | 48 to 72 |  |  |  |  |  |  |  |  |
| C=C1C[C@]23C[C@H]1CC[C@H]2[C@]1(C)CCC[C@@](C)(C(=O)O)[C@H]1[C@@H]3C(=O)O [GA12] | 55 % of dose | 1.7 % of dose | 3.5 % of dose | 45 % of dose | 0.2 % of dose | 0.9 % of dose | 0.7 % of dose | 3.0 % of dose | 0 | − | − |  | less soluble in water during imbibition | YES | YES | <1 |  |  |  |  |
| C=C1C[C@]23C[C@@]1(O)CC[C@H]2[C@@]12CC=C[C@@](C)(C(=O)O1)[C@H]2[C@@H]3C(=O)O [GA5] |  |  |  |  |  |  |  |  | 0 | 0 | + |  |  |  |  |  |  |  |  |  |
| C=C1C[C@]23C[C@H]1CC[C@H]2[C@@]12CCC[C@@](C)(C(=O)O1)[C@H]2[C@@H]3C(=O)O [GA9] | 60 % of dose | 6.8 % of dose | 1.3 % of dose | 54 % of dose | 0.1 % of dose | 1.0 % of dose | 0.3 % of dose | 1.0 % of dose |  |  | + |  | less soluble in water during imbibition |  |  | <1 | YES | − | 0 | 0 |
| C=C1C[C@@]23CC[C@H]4[C@@](C)(CCC[C@@]4(C)C(=O)O)[C@@H]2CC[C@@H]1C3 [kaurenoic acid] |  |  |  |  |  |  |  |  | 0 | 0 | − |  | less soluble in water during imbibition |  |  |  | YES |  |  |  |
